In patent publication US10246462B2, “Chemokine receptor modulators and uses thereof” (FLX Bio, Inc., priority 2016, dated 2019) one finds IC50 data, which are given here for nine compounds.

The IC50 is the concentration that gives 50% inhibition.

For this experiment, the target named is CCR4 (Homo sapiens (Human), UniProt P51679). Description: Calcium mobilization (Ca Flux) assay. Format: cell-based. As for the experimental part: Calcium Mobilization Assay. Calcium mobilization experiments may be performed by labeling the human T-cell line CEM with […] dye (45 min at room temperature), washing with PBS, and re-suspending into flux buffer (HBSS with 1% FBS).
Chain of CCR4 (P51679 whole entry): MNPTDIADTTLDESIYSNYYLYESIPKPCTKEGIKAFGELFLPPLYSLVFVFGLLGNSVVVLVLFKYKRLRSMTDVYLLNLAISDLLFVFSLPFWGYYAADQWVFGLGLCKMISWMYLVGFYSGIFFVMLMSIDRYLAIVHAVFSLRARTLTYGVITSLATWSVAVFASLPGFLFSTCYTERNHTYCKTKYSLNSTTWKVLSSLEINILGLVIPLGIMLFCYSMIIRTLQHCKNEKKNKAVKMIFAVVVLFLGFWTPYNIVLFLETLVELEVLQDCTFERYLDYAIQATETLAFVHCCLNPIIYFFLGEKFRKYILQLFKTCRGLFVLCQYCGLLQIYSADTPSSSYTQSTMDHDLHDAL

Where a name gives a salt, the structure may show the parent alone.

For the compound `Cc1nn([C@H](C)c2ccc(Cl)cc2Cl)c2nc(N3CC[C@H](N4CCC[C@H]4C)[C@H](C(=O)O)C3)cnc12` [Example 30, (3R,4S)-1-(1-((R)-1-(2,4-Dichlorophenyl)ethyl)-3-methyl-1H-pyrazolo[3,4-b]pyrazin-6-yl)-4-((R)-2-methylpyrrolidin-1-yl)piperidine-3-carboxylic acid hydrochloride], the IC50 was in the range of 0.1 to 0.5 µM.
In the case of `C[C@@H]1CN(c2cnc3c(C#N)nn([C@H](C)c4ccc(Cl)cc4Cl)c3n2)CC[C@@H]1N1CCC[C@H]1CO` [Example 33, 1-((R)-1-(2,4-Dichlorophenyl)ethyl)-6-((3R,4S)-4-((S)-2-(hydroxymethyl)pyrrolidin-1-yl)-3-methylpiperidin-1-yl)-1H-pyrazolo[3,4-b]pyrazine-3-carbonitrile hydrochloride] it was less than 0.1 µM.
In the case of `Cc1nn([C@H](C)c2ccc(Cl)cc2Cl)c2nc(N3CC[C@H](N4CCC[C@H]4C(=O)O)[C@H](C)C3)cnc12` [Example 34, ((3R,4S)-1-(1-((R)-1-(2,4-Dichlorophenyl)ethyl)-3-methyl-1H-pyrazolo[3,4-b]pyrazin-6-yl)-3-methylpiperidin-4-yl)-L-proline 2,2,2-trifluoroacetate] it was greater than 0.5 µM; in that of `C[C@@H]1CN(c2cnc3c(C#N)nn([C@H](C)c4ccc(Cl)cc4Cl)c3n2)CC[C@@H]1N1CCC[C@H]1C(=O)O` [Example 35, ((3R,4S)-1-(3-Cyano-1-((R)-1-(2,4-dichlorophenyl)ethyl)-1H-pyrazolo[3,4-b]pyrazin-6-yl)-3-methylpiperidin-4-yl)-L-proline 2,2,2-trifluoroacetate], 0.1 to 0.5 µM; in that of `Cc1nn([C@H](C)c2ccc(Cl)cc2Cl)c2nc(N3CC[C@H](N4CCC[C@H]4C(C)(C)O)[C@H](C)C3)cnc12` [Example 36, 2-((S)-1-((3R,4S)-1-(1-((R)-1-(2,4-Dichlorophenyl)ethyl)-3-methyl-1H-pyrazolo[3,4-b]pyrazin-6-yl)-3-methylpiperidin-4-yl)pyrrolidin-2-yl)propan-2-ol hydrochloride], 0.1 to 0.5 µM.
Take `Cc1nn([C@H](C)c2ccc(Cl)cc2Cl)c2nc(N3CC[C@H](N4C[C@H](O)C[C@H]4C(=O)O)[C@H](C)C3)cnc12` [Example 37, (2S,4R)-1-((3R,4S)-1-(1-((R)-1-(2,4-Dichlorophenyl)ethyl)-3-methyl-1H-pyrazolo[3,4-b]pyrazin-6-yl)-3-methylpiperidin-4-yl)-4-hydroxypyrrolidine-2-carboxylic acid 2,2,2-trifluoroacetate]: the IC50 was greater than 0.5 µM.
Regarding `Cc1nn([C@H](C)c2ccc(Cl)cc2Cl)c2nc(N3CC[C@H](N4CCC[C@@H](CC(=O)O)C4)[C@H](C)C3)cnc12` [Example 38, 2-((3S,3′R,4′S)-1′-(1-((R)-1-(2,4-Dichlorophenyl)ethyl)-3-methyl-1H-pyrazolo[3,4-b]pyrazin-6-yl)-3′-methyl-[1,4′-bipiperidin]-3-yl)acetic acid formate], the IC50 is 0.1 to 0.5 µM.
Take `C[C@@H]1CN(c2cnc3c(C#N)nn([C@H](C)c4ccc(Cl)cc4Cl)c3n2)CC[C@@H]1N1CCC[C@@H](CC(=O)O)C1` [Example 39, 2-((3S,3′R,4′S)-1′-(3-Cyano-1-((R)-1-(2,4-dichlorophenyl)ethyl)-1H-pyrazolo[3,4-b]pyrazin-6-yl)-3′-methyl-[1,4′-bipiperidin]-3-yl)acetic acid formate]: the IC50 fell in the range of 0.1 to 0.5 µM.
To `Cc1nn([C@H](C)c2ccc(Cl)cc2Cl)c2nc(N3CC[C@@H](N4CCC[C@@H](CCC(=O)O)C4)[C@@H](C)C3)cnc12` [Example 40, 3-((3S,3′S,4′R)-1′-(1-((R)-1-(2,4-Dichlorophenyl)ethyl)-3-methyl-1H-pyrazolo[3,4-b]pyrazin-6-yl)-3′-methyl-[1,4′-bipiperidin]-3-yl)propanoic acid 2,2,2-trifluoroacetate] belongs greater than 0.5 µM.
